What is called IC50 is the concentration that gives 50% inhibition.

The target in one assay is EGFR (L858R) (Homo sapiens, UniProt P00533, L858R). Put plainly: MSA (Mobility Shift Assay) kinase activity, EGFR-L858R. It is filed as biochemical. The method, boiled down:
(§1)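 Kinase preincubated with compound 10 min at room temperature, then reaction started with ATP plus substrate in 1x kinase buffer and run at room temperature. Substrate-to-product conversion read by mobility shift; % inhibition normalised to no-enzyme and no-compound controls, IC50 from variable-slope four-parameter fit.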

In another assay the target is EGFR (L858R/C797S) (Homo sapiens, UniProt P00533, C797S/L858R). The experiment in a line: MSA (Mobility Shift Assay) kinase activity, EGFR-L858R-C797S. It is filed as biochemical. The method, boiled down:
as §1

A further assay deals with EGFR (L858R/T790M/C797S) (Homo sapiens, UniProt P00533, C797S/L858R/T790M). The experiment in a line: MSA (Mobility Shift Assay) kinase activity, EGFR-L858R-T790M-C797S. It is filed as biochemical. The essentials: as §1
The target of another assay is T1, Ba/F3-FL-EGFR (Homo sapiens, UniProt P00533).
T1 construct: FL read as full length
The experiment in a line: CellTiter-Glo proliferation, Ba/F3-FL-EGFR. It is filed as cell-based. The conditions noted are these: 72 hours, read-out: Ba/F3-FL-EGFR IC50/nM. The method, boiled down:
(§2)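 Ba/F3 lines dependent on the indicated EGFR variants were treated with compounds at a final DMSO concentration of 0.1% at 37 °C, 5% CO2. Viability was read by CellTiter-Glo luminescence, and inhibition rate was normalised to DMSO-treated cells (max) and medium-only wells (min). IC50 came from inhibition curves.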
(In ATP-based viability assays light output follows the ATP content of the culture.)

The target of a further assay is Ba/F3-FL-EGFR-L858R (Homo sapiens, UniProt P00533, L858R, cells depend on it). Put plainly: CellTiter-Glo proliferation, Ba/F3-FL-EGFR-L858R. The following applies: 72 hours, read-out: Ba/F3-FL-EGFR-L858R IC50/nM. The format is cell-based. The essentials: as §2
Chain of Ba/F3-FL-EGFR-L858R (P00533 whole entry L858R): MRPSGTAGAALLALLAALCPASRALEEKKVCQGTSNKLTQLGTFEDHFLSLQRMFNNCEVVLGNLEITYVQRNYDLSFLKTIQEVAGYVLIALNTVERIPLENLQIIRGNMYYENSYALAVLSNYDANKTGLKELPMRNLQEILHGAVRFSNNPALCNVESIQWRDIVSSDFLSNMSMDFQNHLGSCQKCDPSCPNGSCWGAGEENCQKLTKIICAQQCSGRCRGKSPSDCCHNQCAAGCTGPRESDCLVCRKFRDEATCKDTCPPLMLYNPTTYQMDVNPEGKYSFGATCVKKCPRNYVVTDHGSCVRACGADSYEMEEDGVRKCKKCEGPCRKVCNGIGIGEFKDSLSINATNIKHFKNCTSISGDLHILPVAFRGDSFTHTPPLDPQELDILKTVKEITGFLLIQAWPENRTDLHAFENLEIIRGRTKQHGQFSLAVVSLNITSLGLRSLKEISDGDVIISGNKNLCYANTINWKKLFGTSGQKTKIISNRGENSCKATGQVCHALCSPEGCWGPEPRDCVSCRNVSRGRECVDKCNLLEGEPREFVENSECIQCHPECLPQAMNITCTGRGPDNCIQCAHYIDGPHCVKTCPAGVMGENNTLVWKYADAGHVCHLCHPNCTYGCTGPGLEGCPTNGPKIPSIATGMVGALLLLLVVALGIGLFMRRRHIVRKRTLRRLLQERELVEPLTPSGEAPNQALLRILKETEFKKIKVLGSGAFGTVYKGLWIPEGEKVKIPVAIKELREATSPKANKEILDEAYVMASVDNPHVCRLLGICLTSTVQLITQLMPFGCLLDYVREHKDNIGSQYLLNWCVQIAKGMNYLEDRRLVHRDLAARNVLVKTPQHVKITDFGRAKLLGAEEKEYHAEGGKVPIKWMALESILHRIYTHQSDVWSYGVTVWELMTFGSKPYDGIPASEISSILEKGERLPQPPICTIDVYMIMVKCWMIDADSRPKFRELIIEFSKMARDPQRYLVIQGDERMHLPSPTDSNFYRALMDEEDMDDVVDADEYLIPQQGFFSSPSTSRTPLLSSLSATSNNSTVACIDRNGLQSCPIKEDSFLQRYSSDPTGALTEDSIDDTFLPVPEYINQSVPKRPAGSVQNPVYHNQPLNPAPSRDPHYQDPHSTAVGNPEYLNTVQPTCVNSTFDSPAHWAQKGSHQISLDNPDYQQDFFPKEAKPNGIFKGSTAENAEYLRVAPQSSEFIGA
In assay [1] the target is Ba/F3-FL-EGFR-del19-T790M-C797S (Homo sapiens, UniProt P00533, DEL746-750/T790M/C797S, cells depend on it). Put plainly: CellTiter-Glo proliferation, Ba/F3-FL-EGFR-del19-T790M-C797S. The format is cell-based. The conditions noted are these: 72 hours, read-out: Ba/F3-FL-EGFR-del19-T790M-C797S IC50/nM. The procedure: Promega CellTiter-Glo reagent was used to detect the effects of small molecule inhibitors on the proliferation of three Ba/F3 cell lines (Ba/F3-FL-EGFR-de119, Ba/F3-FL-EGFR-de119-T790M, Ba/F3-FL-EGFR-de119-T790M-C797S).
Chain of Ba/F3-FL-EGFR-del19-T790M-C797S (P00533 with tags, fused parts or gaps DEL746-750/T790M/C797S): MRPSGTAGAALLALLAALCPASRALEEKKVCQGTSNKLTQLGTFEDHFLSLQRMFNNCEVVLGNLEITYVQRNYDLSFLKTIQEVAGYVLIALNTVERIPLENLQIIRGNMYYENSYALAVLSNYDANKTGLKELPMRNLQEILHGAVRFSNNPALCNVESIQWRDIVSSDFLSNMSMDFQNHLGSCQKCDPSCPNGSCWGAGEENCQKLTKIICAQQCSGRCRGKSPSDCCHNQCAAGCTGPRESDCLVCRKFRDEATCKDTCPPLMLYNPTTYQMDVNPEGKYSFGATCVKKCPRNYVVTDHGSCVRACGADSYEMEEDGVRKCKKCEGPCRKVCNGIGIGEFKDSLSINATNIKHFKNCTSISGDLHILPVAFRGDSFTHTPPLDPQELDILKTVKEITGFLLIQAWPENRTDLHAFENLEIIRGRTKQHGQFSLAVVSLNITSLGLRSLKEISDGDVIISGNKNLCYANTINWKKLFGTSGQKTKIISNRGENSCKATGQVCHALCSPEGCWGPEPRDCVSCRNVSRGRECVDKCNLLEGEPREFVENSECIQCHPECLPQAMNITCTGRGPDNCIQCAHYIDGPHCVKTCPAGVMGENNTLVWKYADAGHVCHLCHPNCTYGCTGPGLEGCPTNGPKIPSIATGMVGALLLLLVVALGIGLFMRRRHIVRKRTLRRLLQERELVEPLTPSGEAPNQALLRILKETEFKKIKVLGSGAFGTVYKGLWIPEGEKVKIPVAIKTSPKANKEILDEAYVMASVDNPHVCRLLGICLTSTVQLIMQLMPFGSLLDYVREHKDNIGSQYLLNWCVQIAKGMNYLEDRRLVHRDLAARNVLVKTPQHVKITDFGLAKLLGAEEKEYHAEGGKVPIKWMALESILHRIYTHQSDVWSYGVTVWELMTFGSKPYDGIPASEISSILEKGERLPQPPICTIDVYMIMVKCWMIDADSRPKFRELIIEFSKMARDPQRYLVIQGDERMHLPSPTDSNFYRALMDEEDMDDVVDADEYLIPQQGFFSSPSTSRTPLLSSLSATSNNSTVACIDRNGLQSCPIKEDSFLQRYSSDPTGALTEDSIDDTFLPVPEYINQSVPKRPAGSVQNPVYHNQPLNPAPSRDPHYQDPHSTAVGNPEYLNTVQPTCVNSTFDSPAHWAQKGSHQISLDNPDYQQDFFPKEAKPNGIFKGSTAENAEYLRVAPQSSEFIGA
The cell lines were cultured in an incubator at 37° C. and 5% CO2. Cells were passaged regularly and cells in the logarithmic phase were used for plating. 95 μL of cell suspension was added to each well of the cell plate, and culture medium without cells (containing 0.1% DMSO) was added to the Min control wells. Substance addition for compound detection cell plate: 5 μL of 20× compound working solution was added to the cell culture plate. 5 μL of DMSO-cell culture medium mixture was added to the Max control, with the final DMSO concentration of 0.1%. 5 μL of DMSO-cell culture medium mixture was added to the Max control. The final DMSO concentration was 0.1%.
Cell viability was detected by CellTiter-Glo luminescence assay. Data analysis:
The cell proliferation inhibition rate (Inhibition Rate) data was processed using the following formula: […]
wherein: RLUDrug represents the relative luminescence unit of the cells with the addition of drug, RLUMin represents the luminescence unit of the culture medium, and RLUMax represents the relative luminescence unit of the cells with the addition of DMSO.
The inhibition rates corresponding to different concentrations of compounds were calculated in EXCEL, and then the inhibition rate curve was plotted using GraphPad Prism software and related parameters including the maximum and minimum inhibition rates of cells and IC50 values were calculated.

The target in assay [2] is Ba/F3-FL-EGFR-Del19 (E746-A750) (Homo sapiens, UniProt P00533, DEL746-750, cells depend on it). Put plainly: CellTiter-Glo proliferation, Ba/F3-FL-EGFR-Del19. The conditions noted are these: read-out: Ba/F3-FL-EGFR-Del19 (E746-A750), 72 hours.
Chain of Ba/F3-FL-EGFR-Del19 (E746-A750) (P00533 with tags, fused parts or gaps DEL746-750): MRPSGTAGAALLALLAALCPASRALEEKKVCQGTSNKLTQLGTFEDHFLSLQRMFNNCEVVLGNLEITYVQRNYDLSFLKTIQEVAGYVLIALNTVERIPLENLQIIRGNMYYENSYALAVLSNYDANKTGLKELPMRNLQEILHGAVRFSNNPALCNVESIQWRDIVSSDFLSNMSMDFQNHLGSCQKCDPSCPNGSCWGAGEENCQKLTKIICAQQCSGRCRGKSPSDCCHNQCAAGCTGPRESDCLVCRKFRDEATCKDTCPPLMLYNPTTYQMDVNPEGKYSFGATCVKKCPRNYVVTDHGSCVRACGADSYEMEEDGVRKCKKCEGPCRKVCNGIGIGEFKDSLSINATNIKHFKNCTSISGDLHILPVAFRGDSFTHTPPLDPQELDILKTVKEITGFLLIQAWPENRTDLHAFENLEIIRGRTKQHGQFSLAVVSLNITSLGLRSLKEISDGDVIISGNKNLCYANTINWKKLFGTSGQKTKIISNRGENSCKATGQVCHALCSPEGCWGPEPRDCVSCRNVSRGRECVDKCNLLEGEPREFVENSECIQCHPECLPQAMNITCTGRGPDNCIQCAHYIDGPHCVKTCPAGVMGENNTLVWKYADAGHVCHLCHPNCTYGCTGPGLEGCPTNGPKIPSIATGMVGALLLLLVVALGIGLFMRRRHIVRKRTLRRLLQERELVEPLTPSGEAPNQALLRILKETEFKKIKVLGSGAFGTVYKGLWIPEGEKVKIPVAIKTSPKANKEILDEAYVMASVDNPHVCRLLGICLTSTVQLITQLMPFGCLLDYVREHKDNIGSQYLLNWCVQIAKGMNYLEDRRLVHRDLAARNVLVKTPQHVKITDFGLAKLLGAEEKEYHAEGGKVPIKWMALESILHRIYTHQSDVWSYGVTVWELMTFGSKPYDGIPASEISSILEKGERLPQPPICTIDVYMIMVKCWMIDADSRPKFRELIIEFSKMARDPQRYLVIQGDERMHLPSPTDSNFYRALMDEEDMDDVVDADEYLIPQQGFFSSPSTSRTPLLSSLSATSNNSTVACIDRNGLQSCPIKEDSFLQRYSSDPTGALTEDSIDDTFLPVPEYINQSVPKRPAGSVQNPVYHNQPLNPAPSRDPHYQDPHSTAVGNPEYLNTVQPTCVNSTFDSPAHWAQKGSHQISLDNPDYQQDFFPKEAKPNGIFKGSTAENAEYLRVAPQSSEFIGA
In assay [3] the target is Ba/F3-FL-EGFR-del19/T790M (Homo sapiens, UniProt P00533, DEL746-750/T790M, cells depend on it). The experiment in a line: CellTiter-Glo proliferation, Ba/F3-FL-EGFR-del19/T790M. The following applies: read-out: Ba/F3-FL-EGFR-del19/T790M IC50/nM, 72 hours.
Chain of Ba/F3-FL-EGFR-del19/T790M (P00533 with tags, fused parts or gaps DEL746-750/T790M): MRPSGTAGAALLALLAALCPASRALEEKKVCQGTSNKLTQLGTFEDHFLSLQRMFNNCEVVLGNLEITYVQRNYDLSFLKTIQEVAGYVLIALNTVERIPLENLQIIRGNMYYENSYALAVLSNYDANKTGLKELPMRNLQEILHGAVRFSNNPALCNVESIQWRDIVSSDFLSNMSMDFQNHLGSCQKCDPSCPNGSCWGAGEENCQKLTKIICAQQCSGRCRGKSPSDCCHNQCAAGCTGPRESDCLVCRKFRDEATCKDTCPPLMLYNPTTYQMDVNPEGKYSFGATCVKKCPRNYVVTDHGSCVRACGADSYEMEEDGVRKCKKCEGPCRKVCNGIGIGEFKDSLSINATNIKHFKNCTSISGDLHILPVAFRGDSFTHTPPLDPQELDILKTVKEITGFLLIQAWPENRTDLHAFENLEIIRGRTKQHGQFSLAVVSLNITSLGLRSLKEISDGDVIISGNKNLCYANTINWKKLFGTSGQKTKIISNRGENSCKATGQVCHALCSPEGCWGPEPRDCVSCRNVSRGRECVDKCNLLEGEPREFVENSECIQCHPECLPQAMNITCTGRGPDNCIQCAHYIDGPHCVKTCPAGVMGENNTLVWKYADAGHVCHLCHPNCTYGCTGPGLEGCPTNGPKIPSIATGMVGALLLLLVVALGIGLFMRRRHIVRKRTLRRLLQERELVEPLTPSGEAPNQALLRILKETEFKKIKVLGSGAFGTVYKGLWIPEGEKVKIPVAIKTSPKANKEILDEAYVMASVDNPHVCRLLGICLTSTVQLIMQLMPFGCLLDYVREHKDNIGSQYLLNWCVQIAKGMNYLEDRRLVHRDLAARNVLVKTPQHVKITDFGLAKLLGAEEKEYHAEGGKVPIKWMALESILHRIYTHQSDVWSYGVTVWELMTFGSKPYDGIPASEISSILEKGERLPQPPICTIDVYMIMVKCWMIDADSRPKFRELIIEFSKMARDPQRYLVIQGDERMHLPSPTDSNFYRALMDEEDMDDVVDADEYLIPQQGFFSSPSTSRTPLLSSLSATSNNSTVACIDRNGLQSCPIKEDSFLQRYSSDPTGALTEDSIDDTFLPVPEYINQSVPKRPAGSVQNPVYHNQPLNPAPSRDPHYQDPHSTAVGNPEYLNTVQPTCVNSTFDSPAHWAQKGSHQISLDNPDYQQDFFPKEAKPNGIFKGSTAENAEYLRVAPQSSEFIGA

Regarding `CC(C)c1ccc(N2C[C@H](CS(C)(=O)=O)[C@H]2C)c2cnc(Nc3ccnc(-c4cnn(S(=O)(=O)C5CC5)c4)n3)cc12` [Compound H12], the IC50 at EGFR (L858R) turned out to be 0.51 nM; on EGFR (L858R/C797S), 0.6 nM; on EGFR (L858R/T790M/C797S), 0.43 nM. In addition, the GI50 came out at 209 nM on Ba/F3-FL-EGFR; 7.7 nM at Ba/F3-FL-EGFR-L858R; 7.8 nM in assay [1]; 15 nM in assay [2]; 5.1 nM in assay [3].

For the compound `CC(C)c1ccc(N2CC(N(C)S(C)(=O)=O)C2)c2cnc(Nc3ccnc(N4CC[C@@H](O)[C@@H](F)C4)n3)cc12` [Compound P39a], the IC50 at EGFR (L858R) is 1.1 nM; at EGFR (L858R/C797S) it was 2 nM; at EGFR (L858R/T790M/C797S), 0.05 nM. The GI50 was determined as 670 nM on Ba/F3-FL-EGFR; 18 nM on Ba/F3-FL-EGFR-L858R; 8.4 nM in assay [1]; 41 nM in assay [2]; 4.4 nM in assay [3].

(Values after patent US20250092017A1, “2-PIPERIDYL OR 2-PYRAZOLYL SUBSTITUTED PYRIMIDINE COMPOUND SERVING AS EGFR INHIBITOR” (SUZHOU PUHE BIOPHARMA CO., LTD., priority 2022, published 2025).)
